According to patent publication US20250145625A1, “PYRAZOLOPYRIMIDINE DERIVATIVE AND ANTICANCER PHARMACEUTICAL COMPOSITION CONTAINING SAME AS ACTIVE INGREDIENT” (KOREA RESEARCH INSTITUTE OF CHEMICAL TECHNOLOGY, priority 2021, published 2025):

Columns and labels:
[1] = system: MDA-MB-231 triple negative breast cancer cell line; test: Cytotoxicity in TTK-expressed MDA-MB-231 cells; type: cell-based; details: Homo sapiens, MDA-MB-231, 120 h, 5 days
Method: To determine the cytotoxicity of a compound represented by Chemical Formula 1 according to the present invention to MDA-MB-231 cells, the following test was conducted.
MDA-MB-231 triple negative breast cancer cell line purchased from ATCC was inoculated into each well of a 96-well plate at a volume of 90 μL containing 2,000 cells. Thereafter, an example compound of the present invention was added to respective wells at concentrations of 10 μM, 3 μM, 1 μM, 0.3 μM, 0.1 μM, and 0 μM, and the cells were cultured in a cell incubator at 37° C. for 5 days. Five days later, 10 μL of Cyto X solution (manufacturer: LPS Solution) was added to each of the wells, and the absorbance was measured at 450 nm using an Epoch microplate spectrophotometer (manufacturer: BioTek Instruments Inc.) according to the product's user guide. For cytotoxicity, the IC50 value for cytotoxicity of each compound was calculated by quantifying the number of cells using the measured value.

[2] = system: HCT116 colon cancer cell line; test: Cytotoxicity in TTK-expressed HCT116 cells; type: cell-based; details: Homo sapiens, HCT-116, 120 h, 5 days
Method: To determine the cytotoxicity of a compound represented by Chemical Formula 1 according to the present invention to HCT116 cells, the following test was conducted.
HCT116 colon cancer cell line purchased from ATCC was inoculated into each well of a 96-well plate at a volume of 90 μL containing 2,000 cells. Thereafter, an example compound of the present invention was added to respective wells at concentrations of […], 3 μM, 1 μM, 0.3 μM, 0.1 μM, and 0 μM, and the cells were cultured in a cell incubator at 37° C. for 5 days. After 5 days, the number of cells was measured by CCK8 test method, and the cytotoxicity was determined by calculating the IC50 value for cytotoxicity of each compound.

[3] = system: MDA-MB-231 tumor in nude mice; test: Drug efficacy on nude mice employing MDA-MB-231; type: in vivo; details: MDA-MB-231, oral 6 mg/kg daily for 4 weeks
Method: 5-Week-old female nude mice were subcutaneously injected with 5×10^6 MDA-MB-231 cells into the flank. When the tumor volume reached approximately 50 mm^3, the mice were divided into groups, each containing 5 animals, which were than orally administered a drug. The dosage of the drug was 6 mg/kg and administered daily for 4 weeks.

[4] = system: MDA-MB-231 triple negative breast cancer cell line; test: Cell cycle distribution of co-treatment with paclitaxel in MDA-MB-231 cells; type: cell-based; details: co-treated with 0.001 μM paclitaxel
Method: To determine the change in cell cycle distribution when a compound represented by Chemical Formula 1 according to the present invention and paclitaxel were co-applied to MDA-MB-231 cells, the following test was conducted.
MDA-MB-231 triple negative breast cancer cell line purchased from ATCC was inoculated into each well of a 6-well plate at 100,000 cells. Thereafter, paclitaxel was added at concentrations of 0 μM and 0.001 μM and an example compound of the present invention was added at concentrations of 0 μM, 0.03 μM, or 0.1 μM, and the cells were cultured in a cell incubator at 37° C. for 2 days. After 2 days, the cells were fixed with 70% ethanol, and added and into 200 μL of Muse Cell Cycle reagent in a light-shielded state and cultured for 30 minutes. Then, the cell cycle distribution was analyzed using a Muse Cell Analyzer (manufacturer: Merck, Millipore), and the results are shown in FIG. 6.

[5] = molecular target: recombinant human TTK protein (Homo sapiens (Human), UniProt P33981); test: Evaluation of TTK activity inhibitory ability (scintillation counting); type: biochemical;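 note: reaction stopped with 0.5% phosphoric acid, spotted on P30 filter, TTK activity counted by scintillation, uninhibited no-compound wells taken as 100% control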
Method: To determine the ability of a compound represented by Chemical Formula 1 according to the present invention to inhibit TTK activity, the following experiment was conducted.
After that, the reaction was terminated by adding phosphoric acid to a concentration of 0.5%, and 10 of the reaction solution was dropped onto a P30 filter. […] The activity of TTK was measured through scintillation counting. The activity value from the group with no compound was set as 100% of control, and the degree of TTK inhibition by the compound was calculated.

ALK(h) = ALK(h) (Homo sapiens (Human), UniProt Q9UM73); test: Kinase activity inhibitory ability (panel); type: biochemical; details: compound at 500 nM
IR(h), activated = IR(h), activated (Homo sapiens (Human), UniProt P06213); test: Kinase activity inhibitory ability (panel); type: biochemical; details: compound at 500 nM
IRR(h) = IRR(h) (Homo sapiens (Human), UniProt P14616); test: Kinase activity inhibitory ability (panel); type: biochemical; details: compound at 500 nM
LTK(h) = LTK(h) (Homo sapiens (Human), UniProt P29376); test: Kinase activity inhibitory ability (panel); type: biochemical; details: compound at 500 nM
TTK(h) = TTK(h) (Homo sapiens (Human), UniProt P33981); test: Kinase activity inhibitory ability (panel); type: biochemical
Sequence of TTK(h) (P33981 whole entry): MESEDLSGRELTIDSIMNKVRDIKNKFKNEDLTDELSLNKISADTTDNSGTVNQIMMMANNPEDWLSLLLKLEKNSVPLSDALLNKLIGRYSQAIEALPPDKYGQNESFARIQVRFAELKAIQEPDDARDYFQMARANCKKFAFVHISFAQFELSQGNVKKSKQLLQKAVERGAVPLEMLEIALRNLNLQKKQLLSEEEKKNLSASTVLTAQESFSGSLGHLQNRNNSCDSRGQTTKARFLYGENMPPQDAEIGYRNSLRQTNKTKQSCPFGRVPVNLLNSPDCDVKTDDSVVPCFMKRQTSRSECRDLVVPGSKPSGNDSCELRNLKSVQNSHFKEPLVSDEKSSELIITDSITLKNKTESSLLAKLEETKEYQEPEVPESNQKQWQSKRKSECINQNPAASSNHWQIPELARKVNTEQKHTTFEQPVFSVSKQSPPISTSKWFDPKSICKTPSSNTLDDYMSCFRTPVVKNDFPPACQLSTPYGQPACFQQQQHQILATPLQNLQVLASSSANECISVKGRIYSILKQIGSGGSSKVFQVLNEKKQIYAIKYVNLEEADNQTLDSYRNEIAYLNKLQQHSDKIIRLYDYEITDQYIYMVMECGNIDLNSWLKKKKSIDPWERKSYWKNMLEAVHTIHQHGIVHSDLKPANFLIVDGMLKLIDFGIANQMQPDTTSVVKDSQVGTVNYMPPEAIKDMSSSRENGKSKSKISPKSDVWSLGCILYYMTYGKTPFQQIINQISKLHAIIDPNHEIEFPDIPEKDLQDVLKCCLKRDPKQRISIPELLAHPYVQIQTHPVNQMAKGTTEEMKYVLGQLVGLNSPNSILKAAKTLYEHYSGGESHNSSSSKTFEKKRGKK

Sequence of IR(h), activated (P06213 28-1382): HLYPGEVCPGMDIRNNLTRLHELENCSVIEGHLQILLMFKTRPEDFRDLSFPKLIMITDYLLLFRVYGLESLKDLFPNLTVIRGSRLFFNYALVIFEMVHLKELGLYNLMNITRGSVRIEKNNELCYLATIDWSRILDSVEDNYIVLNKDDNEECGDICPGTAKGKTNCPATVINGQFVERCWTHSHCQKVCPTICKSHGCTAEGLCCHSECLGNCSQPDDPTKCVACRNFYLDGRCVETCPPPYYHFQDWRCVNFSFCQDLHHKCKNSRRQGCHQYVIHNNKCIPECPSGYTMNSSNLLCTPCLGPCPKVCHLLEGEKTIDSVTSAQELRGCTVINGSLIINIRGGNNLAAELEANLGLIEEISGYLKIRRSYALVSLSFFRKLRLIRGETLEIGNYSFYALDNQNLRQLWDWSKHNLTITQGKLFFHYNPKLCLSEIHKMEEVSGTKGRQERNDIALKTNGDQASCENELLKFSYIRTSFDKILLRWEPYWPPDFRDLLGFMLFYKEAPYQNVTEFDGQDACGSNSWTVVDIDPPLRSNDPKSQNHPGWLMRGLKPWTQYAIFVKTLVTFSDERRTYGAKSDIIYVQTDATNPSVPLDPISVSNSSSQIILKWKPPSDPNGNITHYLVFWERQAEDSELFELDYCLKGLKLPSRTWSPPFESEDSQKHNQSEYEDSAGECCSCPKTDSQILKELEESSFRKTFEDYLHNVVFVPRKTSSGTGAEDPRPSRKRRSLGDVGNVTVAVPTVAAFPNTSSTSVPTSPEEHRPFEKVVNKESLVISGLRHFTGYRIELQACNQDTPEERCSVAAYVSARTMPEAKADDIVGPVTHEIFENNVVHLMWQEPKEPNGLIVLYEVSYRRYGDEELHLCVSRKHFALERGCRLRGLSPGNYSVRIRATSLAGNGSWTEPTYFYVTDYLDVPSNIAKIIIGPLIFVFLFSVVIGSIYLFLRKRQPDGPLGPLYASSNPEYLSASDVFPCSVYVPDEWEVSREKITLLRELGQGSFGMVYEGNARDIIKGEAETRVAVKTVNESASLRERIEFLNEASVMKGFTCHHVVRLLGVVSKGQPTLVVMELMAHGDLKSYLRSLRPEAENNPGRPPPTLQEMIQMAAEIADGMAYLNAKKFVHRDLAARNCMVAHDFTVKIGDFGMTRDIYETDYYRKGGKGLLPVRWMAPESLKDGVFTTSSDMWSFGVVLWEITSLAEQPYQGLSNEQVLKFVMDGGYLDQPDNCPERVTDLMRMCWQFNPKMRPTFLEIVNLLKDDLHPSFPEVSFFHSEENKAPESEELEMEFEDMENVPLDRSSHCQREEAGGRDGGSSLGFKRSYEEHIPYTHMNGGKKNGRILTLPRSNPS
Sequence of IRR(h) (P14616 27-1297): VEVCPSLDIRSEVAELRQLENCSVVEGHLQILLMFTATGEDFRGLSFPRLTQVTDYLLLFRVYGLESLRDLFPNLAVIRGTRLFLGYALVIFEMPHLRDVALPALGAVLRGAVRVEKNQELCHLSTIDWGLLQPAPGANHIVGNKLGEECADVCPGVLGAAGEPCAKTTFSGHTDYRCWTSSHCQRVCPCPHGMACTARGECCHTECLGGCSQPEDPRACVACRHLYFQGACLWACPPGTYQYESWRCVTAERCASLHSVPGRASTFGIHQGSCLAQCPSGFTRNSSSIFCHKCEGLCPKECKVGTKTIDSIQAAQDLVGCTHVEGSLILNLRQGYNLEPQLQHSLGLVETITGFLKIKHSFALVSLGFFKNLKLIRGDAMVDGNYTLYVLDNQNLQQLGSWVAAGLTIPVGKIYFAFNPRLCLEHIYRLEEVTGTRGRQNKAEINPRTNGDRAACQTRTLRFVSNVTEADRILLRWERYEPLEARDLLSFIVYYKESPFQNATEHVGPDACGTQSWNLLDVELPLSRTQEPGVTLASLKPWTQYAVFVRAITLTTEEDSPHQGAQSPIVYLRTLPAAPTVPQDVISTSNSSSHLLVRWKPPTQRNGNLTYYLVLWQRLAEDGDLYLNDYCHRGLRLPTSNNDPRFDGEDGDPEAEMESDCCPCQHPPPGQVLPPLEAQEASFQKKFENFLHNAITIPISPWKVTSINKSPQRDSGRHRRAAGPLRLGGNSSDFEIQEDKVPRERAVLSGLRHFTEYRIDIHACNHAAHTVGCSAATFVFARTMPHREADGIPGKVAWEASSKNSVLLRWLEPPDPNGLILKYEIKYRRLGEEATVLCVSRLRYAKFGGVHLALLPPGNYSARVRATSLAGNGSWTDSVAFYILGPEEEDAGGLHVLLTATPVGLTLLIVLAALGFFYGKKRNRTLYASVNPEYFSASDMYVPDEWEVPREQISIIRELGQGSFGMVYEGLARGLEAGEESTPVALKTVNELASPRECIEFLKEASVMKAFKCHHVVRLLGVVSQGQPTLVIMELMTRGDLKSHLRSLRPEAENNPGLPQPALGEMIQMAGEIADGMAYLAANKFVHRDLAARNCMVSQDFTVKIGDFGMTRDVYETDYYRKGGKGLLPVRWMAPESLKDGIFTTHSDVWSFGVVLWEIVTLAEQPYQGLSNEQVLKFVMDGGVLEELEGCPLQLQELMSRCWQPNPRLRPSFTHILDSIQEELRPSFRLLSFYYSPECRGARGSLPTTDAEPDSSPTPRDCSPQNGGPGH
Sequence of LTK(h) (P29376 17-864): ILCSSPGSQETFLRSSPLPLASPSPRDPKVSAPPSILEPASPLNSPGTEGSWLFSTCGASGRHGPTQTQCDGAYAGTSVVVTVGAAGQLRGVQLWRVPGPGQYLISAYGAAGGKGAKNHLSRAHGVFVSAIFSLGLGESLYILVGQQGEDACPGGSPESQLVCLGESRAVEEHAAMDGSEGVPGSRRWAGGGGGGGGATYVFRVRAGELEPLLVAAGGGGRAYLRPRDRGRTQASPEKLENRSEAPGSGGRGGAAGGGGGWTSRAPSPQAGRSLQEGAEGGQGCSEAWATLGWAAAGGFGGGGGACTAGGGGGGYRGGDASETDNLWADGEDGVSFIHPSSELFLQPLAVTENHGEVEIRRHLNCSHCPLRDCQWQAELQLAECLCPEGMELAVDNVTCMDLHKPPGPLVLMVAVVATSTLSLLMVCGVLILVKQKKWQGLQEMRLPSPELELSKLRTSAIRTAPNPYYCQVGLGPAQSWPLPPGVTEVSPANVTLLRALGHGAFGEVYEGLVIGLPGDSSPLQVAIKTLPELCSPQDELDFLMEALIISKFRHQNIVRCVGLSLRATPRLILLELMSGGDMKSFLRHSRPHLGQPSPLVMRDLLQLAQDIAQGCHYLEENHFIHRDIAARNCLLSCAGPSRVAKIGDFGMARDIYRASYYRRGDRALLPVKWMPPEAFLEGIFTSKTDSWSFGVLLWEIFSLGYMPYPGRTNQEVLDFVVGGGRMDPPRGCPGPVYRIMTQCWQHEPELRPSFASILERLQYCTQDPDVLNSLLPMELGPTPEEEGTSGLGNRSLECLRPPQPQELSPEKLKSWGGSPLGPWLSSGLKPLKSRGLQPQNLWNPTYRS
Sequence of recombinant human TTK protein (P33981 whole entry): as the sequence (P33981 whole entry) above

SMILES	IC50 [1]	IC50 [2]	tumor volume over time [3]	change in cell distribution on co-treatment [4]	IC50 [5]	activity at 0.5 µM (ALK(h))	inhibition at 0.5 µM (ALK(h))	activity at 0.5 µM (IR(h), activated)	inhibition at 0.5 µM (IR(h), activated)	activity at 0.5 µM (IRR(h))	inhibition at 0.5 µM (IRR(h))	activity at 0.5 µM (LTK(h))	inhibition at 0.5 µM (LTK(h))	TTK activity inhibition (in words) (TTK(h); 500 nM)	activity at 0.5 µM (TTK(h); TTK(h), compound at 500 nM)	inhibition at 0.5 µM (TTK(h); TTK(h), compound at 500 nM)
Cc1cc(-c2cnn3c(NC[C@H]4C[C@@](C)(O)C4)cc(Oc4cccnc4)nc23)ccc1C(=O)NC1CC1 [Comparative Example 1, CFI-402257, reference compound]	< 150 nM	< 150 nM	reduced	enhanced changes in cell distribution	–	–	–	–	–	–	–	–	–	–	–	–
COc1ccc(Cn2nc(-c3cn[nH]c3)c3c(NC4CCCCC4)nc(Nc4ccc(N5CCOCC5)cc4OC)nc32)cc1 [Compound 8-8, N^4-cyclohexyl-N^6-(2-methoxy-4-morpholinophenyl)-1-(4-methoxybenzyl)-3-(1H-pyrazol-4-yl)-1H-pyrazolo[3,4-d]pyrimidine-4,6-diamine]	< 150 nM	< 150 nM	–	–	30 to 100 nM	2%	> 90%	8%	> 90%	7%	> 90%	2%	> 90%	completely inhibited TTK activity	-7%	> 90%
